In this experiment the target is human ACC2 (Homo sapiens (Human), UniProt O00763). The experiment is described as follows: ACC2 assay, spectrophotometric 384 well assay (NADH-linked, coupled lactate dehydrogenase/pyruvate kinase reaction). The format is biochemical. The conditions noted are these: hACC2 construct lacking the 128 N-terminal amino acids; 25° C., 340 nm over 15 minutes. The essentials: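 N-terminally truncated human ACC2 (lacking 128 residues) expressed in insect cells; coupled PK/LDH read-out of ADP as NADH loss at 340 nm, 15 min, 25 °C. Tris pH 7.5 with citrate and KHCO3; 200 μM acetyl-CoA, 500 μM ATP, 1% DMSO.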
Chain of human ACC2 (O00763 129-2458): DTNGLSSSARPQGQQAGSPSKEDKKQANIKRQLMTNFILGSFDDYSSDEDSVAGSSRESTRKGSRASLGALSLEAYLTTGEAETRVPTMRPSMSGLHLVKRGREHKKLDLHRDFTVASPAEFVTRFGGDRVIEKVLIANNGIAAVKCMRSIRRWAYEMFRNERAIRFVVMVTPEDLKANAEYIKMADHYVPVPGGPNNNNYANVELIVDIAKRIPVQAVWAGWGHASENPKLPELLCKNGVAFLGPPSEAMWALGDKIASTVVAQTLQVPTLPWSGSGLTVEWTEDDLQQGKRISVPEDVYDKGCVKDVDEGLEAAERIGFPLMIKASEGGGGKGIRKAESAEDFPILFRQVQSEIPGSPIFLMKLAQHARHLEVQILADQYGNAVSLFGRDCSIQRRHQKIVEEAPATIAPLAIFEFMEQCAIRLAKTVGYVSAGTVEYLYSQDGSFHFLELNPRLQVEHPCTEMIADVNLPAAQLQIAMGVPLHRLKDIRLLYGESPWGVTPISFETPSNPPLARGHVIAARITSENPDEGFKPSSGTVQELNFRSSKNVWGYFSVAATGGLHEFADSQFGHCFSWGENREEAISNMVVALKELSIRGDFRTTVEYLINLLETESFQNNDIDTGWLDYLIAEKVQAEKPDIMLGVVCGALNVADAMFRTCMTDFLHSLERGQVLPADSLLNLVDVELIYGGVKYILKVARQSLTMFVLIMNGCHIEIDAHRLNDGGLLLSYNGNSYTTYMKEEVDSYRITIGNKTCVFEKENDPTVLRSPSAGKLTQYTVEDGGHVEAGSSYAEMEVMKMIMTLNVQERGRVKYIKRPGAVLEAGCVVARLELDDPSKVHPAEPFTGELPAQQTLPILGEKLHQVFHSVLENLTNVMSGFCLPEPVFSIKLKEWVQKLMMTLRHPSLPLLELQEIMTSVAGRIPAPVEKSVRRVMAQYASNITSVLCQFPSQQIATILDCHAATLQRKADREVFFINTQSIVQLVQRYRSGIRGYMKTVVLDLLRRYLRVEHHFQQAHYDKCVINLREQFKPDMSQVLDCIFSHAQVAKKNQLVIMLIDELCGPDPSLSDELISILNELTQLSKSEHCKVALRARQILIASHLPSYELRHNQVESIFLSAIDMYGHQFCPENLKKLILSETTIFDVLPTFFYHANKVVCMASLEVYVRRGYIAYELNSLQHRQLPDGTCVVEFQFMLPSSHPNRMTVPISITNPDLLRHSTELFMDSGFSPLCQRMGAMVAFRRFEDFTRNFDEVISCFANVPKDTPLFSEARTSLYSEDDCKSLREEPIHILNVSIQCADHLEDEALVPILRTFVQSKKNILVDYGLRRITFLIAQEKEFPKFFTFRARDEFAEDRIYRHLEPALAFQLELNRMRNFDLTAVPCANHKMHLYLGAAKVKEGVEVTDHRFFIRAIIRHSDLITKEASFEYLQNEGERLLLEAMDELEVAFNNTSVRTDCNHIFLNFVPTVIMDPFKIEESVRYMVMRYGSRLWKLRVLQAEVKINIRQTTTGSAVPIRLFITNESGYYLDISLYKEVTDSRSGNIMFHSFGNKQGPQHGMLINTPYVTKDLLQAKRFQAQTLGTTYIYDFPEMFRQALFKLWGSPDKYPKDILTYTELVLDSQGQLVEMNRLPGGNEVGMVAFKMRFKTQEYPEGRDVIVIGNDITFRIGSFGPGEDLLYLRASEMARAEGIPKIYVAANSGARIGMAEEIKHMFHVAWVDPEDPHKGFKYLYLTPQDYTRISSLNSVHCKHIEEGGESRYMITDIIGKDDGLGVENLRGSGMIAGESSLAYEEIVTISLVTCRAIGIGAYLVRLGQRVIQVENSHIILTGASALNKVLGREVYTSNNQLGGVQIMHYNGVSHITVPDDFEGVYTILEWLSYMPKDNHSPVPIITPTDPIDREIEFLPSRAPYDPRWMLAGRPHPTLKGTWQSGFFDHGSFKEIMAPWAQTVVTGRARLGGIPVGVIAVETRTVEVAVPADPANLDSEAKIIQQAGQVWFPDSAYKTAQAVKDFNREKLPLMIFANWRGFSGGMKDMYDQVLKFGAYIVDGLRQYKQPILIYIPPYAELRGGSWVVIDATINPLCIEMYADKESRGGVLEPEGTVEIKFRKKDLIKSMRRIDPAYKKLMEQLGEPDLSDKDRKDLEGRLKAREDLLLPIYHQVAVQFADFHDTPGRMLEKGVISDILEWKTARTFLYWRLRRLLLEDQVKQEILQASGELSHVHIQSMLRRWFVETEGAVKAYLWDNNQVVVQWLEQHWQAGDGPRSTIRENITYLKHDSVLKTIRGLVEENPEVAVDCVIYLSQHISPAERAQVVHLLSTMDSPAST
What is called IC50 is the midpoint of a concentration-inhibition curve. As for `CCOc1ccc(C#Cc2ccc(C(C)NC(=O)c3cnco3)cc2)cc1` (stereo not drawn) [Example 4.45], the IC50 is 530 nM.
`CCOc1ccc(C#Cc2ccc(C(C)NC(=O)C(C)OCC(F)(F)F)cc2)cc1` (stereo not drawn) [Example 4.46]: half-maximal inhibition (IC50) was put at 8500 nM.
The compound `CCOc1ccc(C#Cc2ccc(C(C)NC(=O)c3ccccn3)cc2)cc1` (stereo not drawn) [Example 4.47] gave an IC50 of 2700 nM.
The compound `CCOc1ccc(C#Cc2ccc(C(C)NC(=O)CO)cc2)cc1` (stereo not drawn) [Example 4.48] returned an IC50 of 3900 nM. This IC50 and that of the compound before are within 1.5-fold of each other.
In turn, `CCOc1ccc(C#Cc2ccc(CC(C)NC(=O)C(C)(C)F)cc2)cc1` (stereo not drawn) [Example 4.49] registered a 50% inhibitory concentration (IC50) of 8700 nM.
On to `CCOc1ccc(C#Cc2ccc(CC(C)NC(=O)[C@H](C)OC)cc2)cc1` (stereo partly drawn) [Example 4.50], for which the IC50 was found to be 6300 nM.
The compound `CCOc1ccc(C#Cc2ccc(CC(C)NC(=O)C3(C)COC3)cc2)cc1` (stereo not drawn) [Example 4.51] showed an IC50 of 510 nM.
The compound `CCOc1ccc(C#Cc2ccc(CC(C)NC(=O)c3c(C)noc3N)cc2)cc1` (stereo not drawn) [Example 4.52] displayed an IC50 of 5100 nM.
In turn, `CCOc1ccc(C#Cc2ccc(C(C)NC(=O)c3cncs3)cc2)cc1` (stereo not drawn) [Example 4.53] displayed an IC50 of 370 nM.
For `CCOc1ccc(C#Cc2ccc(C(C)NC(=O)c3cocn3)cc2)cc1` (stereo not drawn) [Example 4.54], half-maximal inhibition (IC50) required 30000 nM. Compared with the last compound, the IC50 is about 81-fold higher.
`CCOc1ccc(C#Cc2ccc(C(C)NC(=O)c3cn[nH]c3)cc2)cc1` (stereo not drawn) [Example 4.55] returned an IC50 of 330 nM.
`CCOc1ccc(C#Cc2ccc(CC(C)NC(=O)c3cocn3)cc2)cc1` (stereo not drawn) [Example 4.56] gave an IC50 of 5600 nM.
As to `CCOc1ccc(C#Cc2ccc(CC(C)NC(=O)c3oc(C)nc3C)cc2)cc1` (stereo not drawn) [Example 4.57], half-maximal inhibition (IC50) was put at 990 nM.
Consider `CCOc1ccc(C#Cc2ccc(CC(C)NC(=O)C3CCNC3=O)cc2)cc1` (stereo not drawn) [Example 4.58], for which the IC50 worked out at 680 nM.
For the compound `CCOc1ccc(C#Cc2ccc(CC(C)NC(=O)c3ccco3)cc2)cc1` (stereo not drawn) [Example 4.59], the IC50 was 110 nM.
`CCOc1ccc(C#Cc2ccc(CC(C)NC(=O)c3ncn[nH]3)cc2)cc1` (stereo not drawn) [Example 4.60] had an IC50 of 24700 nM.
In turn, `CCOc1ccc(C#Cc2ccc(CC(C)NC(=O)C(=O)N(C)C)cc2)cc1` (stereo not drawn) [Example 4.61] registered an IC50 of 10100 nM.
On to `CCOc1ccc(C#Cc2ccc(CC(C)NC(=O)C3CC(=O)N(C)C3)cc2)cc1` (stereo not drawn) [Example 4.62], for which half-maximal inhibition (IC50) was put at 3700 nM.
On to `CCOc1ccc(C#Cc2ccc(CC(C)NC(=O)C3(C#N)CC3)cc2)cc1` (stereo not drawn) [Example 4.63], for which half-maximal inhibition (IC50) required 920 nM.
`CCOc1ccc(C#Cc2ccc(CC(C)NC(=O)C3CCC(=O)NC3)cc2)cc1` (stereo not drawn) [Example 4.64] came in with an IC50 of 5100 nM.
For the compound `CCOc1ccc(C#Cc2ccc(CC(C)NC(=O)c3ccon3)cc2)cc1` (stereo not drawn) [Example 4.65], the IC50 was found to be 1100 nM.
`CCOc1ccc(C#Cc2ccc(CC(C)NC(=O)c3cnc[nH]3)cc2)cc1` (stereo not drawn) [Example 4.66] displayed an IC50 of 4700 nM.
The compound `CCOc1ccc(C#Cc2ccc(CC(C)NC(=O)c3cncs3)cc2)cc1` (stereo not drawn) [Example 4.67] had an IC50 of 70 nM.
With `CCOc1ccc(C#Cc2ccc(CC(C)NC(=O)c3cc[nH]c3)cc2)cc1` (stereo not drawn) [Example 4.68] the figure was 450 nM.
`CCOc1ccc(C#Cc2ccc(CC(C)NC(=O)c3cn[nH]c3)cc2)cc1` (stereo not drawn) [Example 4.69] displayed an IC50 of 70 nM.
`CCOc1ccc(C#Cc2ccc(CC(C)NC(=O)CCNC(C)=O)cc2)cc1` (stereo not drawn) [Example 4.70] gave an IC50 of 1300 nM.
With `CCOc1ccc(C#Cc2ccc(CC(C)NC(=O)c3ocnc3C)cc2)cc1` (stereo not drawn) [Example 4.71] the figure was 430 nM; with `CCOc1ccc(C#Cc2ccc(CC(C)NC(=O)c3cnon3)cc2)cc1` (stereo not drawn) [Example 4.72], 940 nM.
On to `CCOc1ccc(C#Cc2ccc(CC(C)NC(=O)c3nc[nH]n3)cc2)cc1` (stereo not drawn) [Example 4.73], for which inhibition was half-maximal at 19200 nM (IC50).
Compound `CCOc1ccc(C#Cc2ccc(CC(C)NC(=O)C3CCNC3)cc2)cc1` (stereo not drawn) [Example 4.74] yielded an IC50 of 2800 nM.
Consider `CCOc1ccc(C#Cc2ccc(C(C)NC(=O)C3CC3C)cc2)cc1` (stereo not drawn) [Example 4.75], for which the IC50 is 15400 nM.
As for `CC(CNC(=O)CC#N)c1ccc(C#Cc2cnc(OC3CCC3)nc2)cc1` (stereo not drawn) [Example 4.76], the figure is 660 nM; as for `CC(CNC(=O)c1cn[nH]c1)c1ccc(C#Cc2cnc(OC3CCC3)nc2)cc1` (stereo not drawn) [Example 4.77], 460 nM.
As to `CCC(=O)NCC(C)c1ccc(C#Cc2cnc(OC3CCC3)nc2)cc1` (stereo not drawn) [Example 4.78], the IC50 worked out at 290 nM. Compared with the last compound, the IC50 is about 1.6-fold lower.
Regarding `CC(CNC(=O)C(F)F)c1ccc(C#Cc2cnc(OC3CCC3)nc2)cc1` (stereo not drawn) [Example 4.79], the IC50 is 160 nM.
As to `COc1ncc(C#Cc2ccc(C(C)CNC(=O)c3cn[nH]c3)cc2)cn1` (stereo not drawn) [Example 4.80], the midpoint of inhibition, the IC50, lay at 7700 nM.
`CCOc1ccc(C#Cc2ccc(CC(C)NS(=O)(=O)C3CC3)cc2)cc1` (stereo not drawn) [Example 5.1]: it took 250 nM to reach half-maximal inhibition (IC50).
As for `CCOc1ccc(C#Cc2ccc(C(C)NS(=O)(=O)CC3CC3)cc2)cc1` (stereo not drawn) [Example 5.2], the figure is 7200 nM; as for `CCCS(=O)(=O)NC(C)Cc1ccc(C#Cc2ccc(OCC)cc2)cc1` (stereo not drawn) [Example 5.3], 1200 nM.
Regarding `CCOc1ccc(C#Cc2ccc(CC(C)NS(C)(=O)=O)cc2)cc1` (stereo not drawn) [Example 5.4], inhibition was half-maximal at 330 nM (IC50).
With `CCOc1ccc(C#Cc2ccc(C(C)NC(=O)Nc3ccc(N(C)C)cc3)cc2)cc1` (stereo not drawn) [Example 6.1] the figure was 30000 nM; with `CCOc1ccc(C#Cc2ccc(C(C)NC(=O)Nc3cccnc3)cc2)cc1` (stereo not drawn) [Example 6.2], 2200 nM; with `CCNC(=O)NC(C)Cc1ccc(C#Cc2ccc(OCC)cc2)cc1` (stereo not drawn) [Example 6.3], 230 nM.
Turning to `CCOc1ccc(C#Cc2ccc(C(C)NC(=O)NCC(=O)O)cc2)cc1` (stereo not drawn) [Example 6.4], the IC50 turned out to be 9600 nM.
As for `CCOc1ccc(C#Cc2ccc(C(C)NC(=O)N(C)C)cc2)cc1` (stereo not drawn) [Example 7.1, 3-(1-(4-((4-Ethoxyphenyl)ethynyl)phenyl)ethyl)-1,1-dimethylurea], the figure is 620 nM.
Take `CCOc1ccc(C#Cc2ccc(CC(C)NC(=O)N(C)C)cc2)cc1` (stereo not drawn) [Example 7.2]: it took 190 nM to reach half-maximal inhibition (IC50).
With `CCOc1ccc(C#Cc2ccc(CC(C)NC(=O)N(C)CC)cc2)cc1` (stereo not drawn) [Example 7.3] the figure was 360 nM; with `CC(=O)NC(C)Cc1ccc(C#Cc2ccc(C(=O)N3CCCCC3)cc2)cc1` (stereo not drawn) [Example 8.1, N-(1-(4-((4-(piperidine-1-carbonyl)phenyl)ethynyl)phenyl)propan-2-yl)acetamide], 500 nM.
`CC(=O)NC(C)Cc1ccc(C#Cc2ccc(C(=O)N(C)Cc3nc(C)oc3C)cc2)cc1` (stereo not drawn) [Example 8.2] had a half-inhibitory concentration (IC50) of 5600 nM.
`CC(=O)NC(C)Cc1ccc(C#Cc2ccc(C(=O)NCc3cccnc3)cc2)cc1` (stereo not drawn) [Example 8.3] returned an IC50 of 13000 nM.
With `CC(=O)NC(C)Cc1ccc(C#Cc2ccc(C(=O)NC3CCCC3)cc2)cc1` (stereo not drawn) [Example 8.4] the figure was 1600 nM; with `CC(=O)NC(C)Cc1ccc(C#Cc2ccc(C(=O)NCC3CC3)cc2)cc1` (stereo not drawn) [Example 8.6], 1500 nM; with `CC(=O)NC(C)Cc1ccc(C#Cc2ccc(C(=O)NCC3CCCO3)cc2)cc1` (stereo not drawn) [Example 8.7], 26300 nM.
`CC(=O)NC(C)Cc1ccc(C#Cc2ccc(C(=O)N(C)Cc3ccccc3)cc2)cc1` (stereo not drawn) [Example 8.9] gave an IC50 of 3700 nM. Compared with the last compound, the IC50 is about 7.1-fold lower.
Turning to `CCCN(C)C(=O)c1ccc(C#Cc2ccc(CC(C)NC(C)=O)cc2)cc1` (stereo not drawn) [Example 8.10], the IC50 was determined as 1100 nM.
The compound `CC(=O)NC(C)Cc1ccc(C#Cc2ccc(C(=O)NCc3ccncc3)cc2)cc1` (stereo not drawn) [Example 8.11] had an IC50 of 16600 nM.
In turn, `CC(=O)NC(C)Cc1ccc(C#Cc2ccc(C(=O)N3Cc4ccccc4C3)cc2)cc1` (stereo not drawn) [Example 8.12] returned an IC50 of 1500 nM.
The compound `CC(=O)NC(C)Cc1ccc(C#Cc2ccc(C(=O)N(C)C3CCCC3)cc2)cc1` (stereo not drawn) [Example 8.13] had an IC50 of 2400 nM.
As to `CC(=O)NC(C)Cc1ccc(C#Cc2ccc(C(=O)N(C)Cc3cccnc3)cc2)cc1` (stereo not drawn) [Example 8.14], half-maximal inhibition (IC50) required 11500 nM.
Compound `CC(=O)NC(C)Cc1ccc(C#Cc2ccc(C(=O)N3CCC3)cc2)cc1` (stereo not drawn) [Example 8.15] registered an IC50 of 2200 nM.
As for `CC(=O)NC(C)Cc1ccc(C#Cc2ccc(C(=O)N3CCC(C)(C)CC3)cc2)cc1` (stereo not drawn) [Example 8.16], the figure is 1900 nM.
On to `CCNC(=O)c1ccc(C#Cc2ccc(CC(C)NC(C)=O)cc2)cc1` (stereo not drawn) [Example 8.17], for which the half-maximal inhibitory concentration (IC50) is 4400 nM. This IC50 is about 2.3-fold higher than that of the compound before.
Compound `CC(=O)NC(C)Cc1ccc(C#Cc2cccc(C(=O)NCC(F)(F)F)c2)cc1` (stereo not drawn) [Example 8.18] showed an IC50 of 7700 nM.
With `CC(=O)NC(C)Cc1ccc(C#Cc2ccc(C(=O)N(C)c3ccccc3)cc2)cc1` (stereo not drawn) [Example 8.19], the IC50 was determined as 4600 nM.
Consider `CC(=O)NC(C)Cc1ccc(C#Cc2ccc(C(=O)NC(C)C)cc2)cc1` (stereo not drawn) [Example 8.20], for which the IC50 is 4400 nM.
For `CC(=O)NC(C)Cc1ccc(C#Cc2ccc(C(=O)NC3CCC3)cc2)cc1` (stereo not drawn) [Example 8.21], the IC50 is 1400 nM.
For `CC(=O)NC(C)Cc1ccc(C#Cc2cccc(C(=O)N(C)CCO)c2)cc1` (stereo not drawn) [Example 8.22], the IC50 amounted to 6500 nM.
Consider `CC(=O)NC(C)Cc1ccc(C#Cc2cccc(C(=O)NCc3ccccn3)c2)cc1` (stereo not drawn) [Example 8.23], for which the IC50 came to 10900 nM.
With `CC(=O)NC(C)Cc1ccc(C#Cc2cccc(C(=O)NCCN3CCOCC3)c2)cc1` (stereo not drawn) [Example 8.24] the figure was 30000 nM; with `CCCN(C)C(=O)c1cccc(C#Cc2ccc(CC(C)NC(C)=O)cc2)c1` (stereo not drawn) [Example 8.25], 2400 nM.
Regarding `CC(=O)NC(C)Cc1ccc(C#Cc2cccc(C(=O)NC3CCCC3)c2)cc1` (stereo not drawn) [Example 8.26], the IC50 amounted to 1500 nM.
The compound `COCCNC(=O)c1cccc(C#Cc2ccc(CC(C)NC(C)=O)cc2)c1` (stereo not drawn) [Example 8.27] displayed an IC50 of 11100 nM.
For `CC(=O)NC(C)Cc1ccc(C#Cc2cccc(C(=O)NCC3CC3)c2)cc1` (stereo not drawn) [Example 8.28], the midpoint of inhibition, the IC50, lay at 5000 nM. Compared with the last compound, the IC50 is about 2.2-fold lower.
Compound `CC(=O)NC(C)Cc1ccc(C#Cc2cccc(C(=O)NCC3CCCO3)c2)cc1` (stereo not drawn) [Example 8.29] displayed an IC50 of 4500 nM.
Compound `CC(=O)NC(C)Cc1ccc(C#Cc2cccc(C(=O)NCC(C)C)c2)cc1` (stereo not drawn) [Example 8.30] registered an IC50 of 2800 nM.

The values are drawn from patent publication US8835472B2, “Compounds, pharmaceutical compositions and uses thereof” (Boehringer Ingelheim International GmbH, priority 2010, dated 2014).
